Data: patent publication US4283418A, “Guanidinobenzoic acid derivatives and process for their preparation” (Ono Pharmaceutical Co., Ltd., priority 1979, dated 1981)

How the values were obtained:
[1] = target: T1, trypsin (Bos taurus, UniProt P00760); test: Inhibition of trypsin hydrolysis of p-tosylarginine methyl ester in vitro; type: biochemical; conditions: trypsin 0.5 μg, p-tosylarginine methyl ester 20 mM, Tris-HCl pH 8.5, 37° C., 30 minutes; read-out: 50% Inhibition Concentration Anti-trypsin
T1 sequence (P00760 24-246): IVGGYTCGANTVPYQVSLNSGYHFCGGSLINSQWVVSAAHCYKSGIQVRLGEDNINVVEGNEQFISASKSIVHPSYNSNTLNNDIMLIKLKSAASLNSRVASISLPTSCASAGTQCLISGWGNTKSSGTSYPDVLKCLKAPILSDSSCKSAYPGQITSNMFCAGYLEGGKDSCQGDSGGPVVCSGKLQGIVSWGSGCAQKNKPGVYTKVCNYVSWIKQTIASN
Method: (§1) The inhibitory activities of representative compounds of the general formula [I] against plasmin and trypsin in vitro were determined in a manner similar to the method described by M. Muramatsu et al J. Biochemistry, 58, 214 (1964) for trypsin and the method described by M. Muramatsu et al ibid, 57, 402 (1965) for plasmin. The procedures used are described more specifically below.
(1) Trypsin: 0.4 ml of trypsin (1.25 μg/ml), 0.5 ml of p-tosylarginine methyl ester (20 mM) in Tris-HCl buffer (pH 8.5) and 0.1 ml of a solution of each of the following compounds represented by the general formula [I] at various concentrations was reacted at a temperature of 37° C. for 30 minutes, and the concentration of each of the test compounds at which the activity of trypsin 0.5 μg to hydrolyze p-tosylarginine methyl ester was inhibited to an extent of 50% is shown in Table 1 below.

[2] = target: T2, plasmin (Homo sapiens, UniProt P00747); test: Inhibition of plasmin in vitro (human euglobulin, streptokinase, fibrinogen); type: biochemical; conditions: borate saline buffer pH 7.4, 37° C., 30 minutes, read-out: 50% Inhibition Concentration Anti-Plasmin
T2 construct: from tissue
Method: as §1
(2) Plasmin: 0.1 ml of human euglobulin (10 fold dilution), 0.1 ml of streptokinase (2000 unit/ml), 0.4 ml of fibrinogen (4% solution), 0.3 ml of a 0.1 M borate saline buffer solution (pH 7.4) and 0.1 ml of a solution of each of the following compounds represented by the general formula [I] at various concentrations was allowed to react at a temperature of 37° C. for 30 minutes.

[3] = Solubility in water; type: physicochemical

T2 sequence (P00747 97-580 limits assumed): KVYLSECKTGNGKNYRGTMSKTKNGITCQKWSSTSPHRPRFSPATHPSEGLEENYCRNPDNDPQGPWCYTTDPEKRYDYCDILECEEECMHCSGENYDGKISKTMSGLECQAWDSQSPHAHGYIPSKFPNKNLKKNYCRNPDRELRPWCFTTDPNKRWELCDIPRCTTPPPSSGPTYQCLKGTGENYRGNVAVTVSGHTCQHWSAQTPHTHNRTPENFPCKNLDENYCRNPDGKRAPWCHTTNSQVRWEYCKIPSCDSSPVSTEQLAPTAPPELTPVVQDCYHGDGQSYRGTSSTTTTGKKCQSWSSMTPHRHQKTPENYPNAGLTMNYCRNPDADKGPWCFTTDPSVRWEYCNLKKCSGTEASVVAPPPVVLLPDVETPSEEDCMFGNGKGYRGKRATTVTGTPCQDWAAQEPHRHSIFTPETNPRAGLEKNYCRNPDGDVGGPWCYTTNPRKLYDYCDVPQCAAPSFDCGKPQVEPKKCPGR
T2 sequence (P00747 581-810 limits assumed): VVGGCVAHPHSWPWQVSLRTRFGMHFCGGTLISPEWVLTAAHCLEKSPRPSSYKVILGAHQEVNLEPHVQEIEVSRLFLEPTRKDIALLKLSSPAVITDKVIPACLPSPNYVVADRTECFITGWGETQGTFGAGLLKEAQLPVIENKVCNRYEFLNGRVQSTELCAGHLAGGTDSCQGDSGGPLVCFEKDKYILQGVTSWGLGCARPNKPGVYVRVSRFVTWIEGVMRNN

Row | SMILES | IC50 [1] [nM] | IC50 [2] [nM] | solubility [3] [mM]
1 | CN(C)C(=O)Cc1ccc(OC(=O)c2ccc(NC(=N)N)cc2)cc1 [Compound No. 4] | 3.4 | 270 | > 20
2 | CNC(=O)Cc1ccc(OC(=O)c2ccc(NC(=N)N)cc2)cc1 [Compound No. 5] | 9.1 | 410 | > 20
3 | CN(C)C(=O)c1ccc(OC(=O)c2ccc(NC(=N)N)cc2)cc1 [Compound No. 6] | 11 | 95 | > 20

Stronger by IC50 [1], values ahead:

Row | IC50 [1] [nM] | IC50 [2] [nM] | solubility [3] [mM] | SMILES
4 | 3 | 3.1 | > 20 | CNS(=O)(=O)c1ccc(OC(=O)c2ccc(NC(=N)N)cc2)cc1 [Compound No. 1]
5 | 2.2 | 4.8 | > 20 | N=C(N)Nc1ccc(C(=O)Oc2ccc(S(N)(=O)=O)cc2)cc1 [Compound No. 3]
6 | 2 | 6.4 | > 20 | CN(C)S(=O)(=O)c1ccc(OC(=O)c2ccc(NC(=N)N)cc2)cc1 [Compound No. 2]
